This is an account of results in ChEMBL document CHEMBL1250530, “Identification of organoselenium compounds that possess chemopreventive properties in human prostate cancer LNCaP cells” (Bioorg Med Chem, 2010).

Calls of active or inactive are those of the source. The calls are words filed in the database; no cut-off is given here.

The target in assay [1] is T1, Nuclear factor erythroid 2-related factor 2 (Homo sapiens) (UniProt Q16236).
T1 sequence (whole entry): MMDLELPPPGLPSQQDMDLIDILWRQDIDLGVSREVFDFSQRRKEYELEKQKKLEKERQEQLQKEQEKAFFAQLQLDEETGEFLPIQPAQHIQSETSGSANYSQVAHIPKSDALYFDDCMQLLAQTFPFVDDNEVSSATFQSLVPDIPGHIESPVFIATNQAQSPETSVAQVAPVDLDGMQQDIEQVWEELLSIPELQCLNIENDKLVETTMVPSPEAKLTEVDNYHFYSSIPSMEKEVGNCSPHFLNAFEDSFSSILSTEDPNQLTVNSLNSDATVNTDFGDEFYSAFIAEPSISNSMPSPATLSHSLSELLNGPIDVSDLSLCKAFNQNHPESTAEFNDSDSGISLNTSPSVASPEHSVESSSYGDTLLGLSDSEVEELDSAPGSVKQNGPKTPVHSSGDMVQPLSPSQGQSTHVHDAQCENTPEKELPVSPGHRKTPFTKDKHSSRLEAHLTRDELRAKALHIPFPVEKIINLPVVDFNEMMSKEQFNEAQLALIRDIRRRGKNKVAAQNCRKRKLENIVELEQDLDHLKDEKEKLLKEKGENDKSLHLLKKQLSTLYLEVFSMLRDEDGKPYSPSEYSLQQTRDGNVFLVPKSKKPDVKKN
Nature of the assay: Induction of NRF2-mediated ARE enhancer activity in hormone-sensitive human LNCaP cells transfected with pGL3-ARE-TK-luc at 5 uM after 24 hrs by luciferase assay relative to control. The format is functional, cell-based.

Assay [2] has as its target T1, Nuclear factor erythroid 2-related factor 2 (Homo sapiens). Nature of the assay: Induction of NRF2-mediated ARE enhancer activity in hormone-refractory human DU145 cells transfected with pGL3-ARE-TK-luc at 5 uM after 24 hrs by luciferase assay relative to control. The format is functional, cell-based. The conditions noted are these: DU-145.
For assay [3], the system named is LNCaP. Nature of the assay: Cytotoxicity against human LNCAP cells assessed as reduction of cells count at 5 uM after 24 to 48 hrs by trypan blue dye exclusion assay. The format is functional, cell-based.
Assay [4] deals with T1, Nuclear factor erythroid 2-related factor 2 (Homo sapiens). Nature of the assay: Increase of NRF2-mediated HO-1 expression in hormone-refractory human DU145 cells at 5 uM after 24 hrs by Western blotting. The format is functional, cell-based. The conditions noted are these: DU-145.
The test system of assay [5] is LNCaP. Description: Antioxidant activity in human LNCAP cells assessed as decrease in intracellular ROS level at 5 uM after 1 hr by fluorescence microplate reader assay. The format is functional, cell-based.
The target of assay [6] is T1, Nuclear factor erythroid 2-related factor 2 (Homo sapiens). Nature of the assay: Increase of NRF2-mediated NQO-1 expression in human LNCaP cells at 5 uM after 24 hrs by Western blotting. The format is functional, cell-based.
Assay [7] deals with LNCaP. Nature of the assay: Induction of morphological changes in human LNCAP cells assessed as appearance of flattened and enlarged cells at 5 uM after 24 to 48 hrs. The format is functional, cell-based.
Assay [8] relates to LNCaP. Nature of the assay: Growth inhibition of human LNCAP cells transfected with HO-1 siRNA at 5 uM after 72 hrs by trypan blue dye exclusion assay. The format is functional, cell-based.
Assay [9] has as its target T1, Nuclear factor erythroid 2-related factor 2 (Homo sapiens). Description: Induction of nuclear translocation of NRF2 in human LNCaP cells at 5 uM after 6 hrs by Western blotting. The format is functional, cell-based.
The target is the same in assay [10]. Nature of the assay: Induction of nuclear translocation of NRF2 in human LNCaP cells at 5 uM after 0.5 hrs by Western blotting. The format is functional, cell-based.
Assay [11] has as its system LNCaP. Nature of the assay: Antioxidant activity in human LNCAP cells assessed as decrease in intracellular ROS level at 5 uM after 12 hrs by fluorescence microplate reader assay. The format is functional, cell-based.
Assay [12] concerns the target T1, Nuclear factor erythroid 2-related factor 2 (Homo sapiens). Nature of the assay: Increase of NRF2-mediated HO-1 expression in human LNCaP cells after 24 hrs by Western blotting. The format is functional, cell-based.
Assay [13] relates to LNCaP. Nature of the assay: Induction of apoptosis in human LNCAP cells at 5 uM by Hoechst 33342 staining. The format is functional, cell-based.
Assay [14] relates to LNCaP. Description: Antioxidant activity in human LNCAP cells assessed as decrease in intracellular ROS level at 5 uM after 5 mins by fluorescence microplate reader assay. The format is functional, cell-based.
The test system of assay [15] is LNCaP. Nature of the assay: Decrease in cyclin B1 expression in human LNCAP cells at 5 uM after 48 hrs by Western blotting. The format is functional, cell-based.
Assay [16] deals with T1, Nuclear factor erythroid 2-related factor 2 (Homo sapiens). Description: Increase of NRF2-mediated HO-1 expression in human LNCaP cells at 5 uM after 24 hrs by Western blotting. The format is functional, cell-based.
The target of assay [17] is MAP kinase p38 (Homo sapiens) (UniProt O15264+Q15759+Q16539+P53778). Description: Effect on p38 phosphorylation in human LNCAP cells. The format is cell-based.
Assay [18] deals with T1, Nuclear factor erythroid 2-related factor 2 (Homo sapiens). Nature of the assay: Increase of NRF2-mediated HO-1 expression in human LNCaP cells at 5 uM by Western blotting. The format is functional, cell-based. The conditions noted are these: TDE = time-dependent effect.
For assay [19] the target is unchanged. Description: Increase of NRF2-mediated NQO-1 expression in hormone-refractory human PC3 cells at 5 uM after 24 hrs by Western blotting. The format is functional, cell-based. The following applies: PC-3.
Assay [20] concerns LNCaP. Nature of the assay: Decrease in cyclin D1 expression in human LNCAP cells at 5 uM after 48 hrs by Western blotting. The format is functional, cell-based.
In assay [21] the target is T1, Nuclear factor erythroid 2-related factor 2 (Homo sapiens). Nature of the assay: Increase of NRF2-mediated HO-1 expression in hormone-refractory human PC3 cells at 5 uM after 24 hrs by Western blotting. The conditions noted are these: PC-3. The format is functional, cell-based.
Assay [22] deals with LNCaP. Nature of the assay: Effect on ERK phosphorylation in human LNCAP cells. The format is cell-based.
Assay [23] has as its target T1, Nuclear factor erythroid 2-related factor 2 (Homo sapiens). Nature of the assay: Induction of NRF2-mediated ARE enhancer activity in hormone-refractory human PC3 cells transfected with pGL3-ARE-TK-luc at 5 uM after 24 hrs by luciferase assay relative to control. The format is functional, cell-based. The following applies: PC-3.
For assay [24] the target is unchanged. Description: Increase of NRF2-mediated HO-1 expression in hormone-refractory human MDA-MB-231 cells after 24 hrs by Western blotting. The format is functional, cell-based.
The target in assay [25] is c-Jun N-terminal kinase, JNK (Homo sapiens) (UniProt P45983+P53779+P45984). Description: Effect on JNK phosphorylation in human LNCAP cells. The format is cell-based.
The subject of assay [26] is LNCaP. Description: Growth inhibition of human LNCAP cells at 5 uM after 48 hrs by trypan blue dye exclusion assay in presence of 5 uM HO-1 inhibitor Zn-protoporphyrin. The format is functional, cell-based.
Assay [27] has as its system LNCaP. Description: Effect on p21 expression in human LNCAP cells at 5 uM after 48 hrs by Western blotting. The format is functional, cell-based.
Assay [28] deals with RAC-alpha serine/threonine-protein kinase (Homo sapiens) (UniProt P31749). Description: Effect on c-Akt phosphorylation in human LNCAP cells. The format is cell-based.
In assay [29] the target is T1, Nuclear factor erythroid 2-related factor 2 (Homo sapiens). Description: Increase of NRF2-mediated NQO-1 expression in hormone-refractory human DU145 cells at 5 uM after 24 hrs by Western blotting. The format is functional, cell-based. The following applies: DU-145.
In assay [30] the test system is LNCaP. Nature of the assay: Induction of NRF2 dominant-negative mutant-mediated ARE enhancer activity in human LNCaP cells transfected with pGL3-ARE-TK-luc at 5 uM after 24 hrs by luciferase assay relative to control. The format is cell-based.
In assay [31] the target is T1, Nuclear factor erythroid 2-related factor 2 (Homo sapiens). Description: Increase of NRF2-mediated HO-1 expression in hormone-refractory human MCF7 cells after 24 hrs by Western blotting. The format is functional, cell-based.
Assay [32] shares this target. Description: Induction of nuclear translocation of NRF2 in human LNCaP cells at 5 uM after 1 hr by Western blotting. The format is functional, cell-based.

RAC-alpha serine/threonine-protein kinase (Homo sapiens), sequence (P31749 whole entry): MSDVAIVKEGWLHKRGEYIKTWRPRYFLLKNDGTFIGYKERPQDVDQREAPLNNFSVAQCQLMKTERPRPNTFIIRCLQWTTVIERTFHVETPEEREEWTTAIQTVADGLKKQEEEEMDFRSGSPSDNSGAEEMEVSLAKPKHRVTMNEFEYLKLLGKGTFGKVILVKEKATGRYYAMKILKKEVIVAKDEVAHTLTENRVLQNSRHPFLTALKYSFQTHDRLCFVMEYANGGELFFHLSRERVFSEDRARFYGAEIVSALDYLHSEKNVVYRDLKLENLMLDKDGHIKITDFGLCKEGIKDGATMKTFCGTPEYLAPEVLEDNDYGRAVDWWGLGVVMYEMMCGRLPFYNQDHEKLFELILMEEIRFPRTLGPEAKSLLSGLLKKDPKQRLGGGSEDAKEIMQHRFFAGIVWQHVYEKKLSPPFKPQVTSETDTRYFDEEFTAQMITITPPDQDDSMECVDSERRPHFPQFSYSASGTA

With `C[C@@H](O[Si](C)(C)C(C)(C)C)[C@H]1C(=O)N2/C(=N/c3ccccc3)[Se]/C(=C/I)C[C@H]12`, the outcome in assay [1] was Active.

Turning to `C[C@@H](O[Si](C)(C)C(C)(C)C)[C@H]1C(=O)N2/C(=N/Cc3ccccc3)[Se]/C(=C/I)C[C@H]12`, the fold change (FC) in assay [2] was under 2; in assay [1], 6; in assay [23], under 2. For the same compound, the result in assay [3], in [4], in assay [6], in [7], in assay [9] and in assay [10] was Active. For the same compound, the result in assay [16], in assay [19], in assay [21], in assay [24], in assay [29] and in assay [31] was Active. Further, the inhibition result in [5], in assay [11], in [14], in [15] and in assay [20] was “Active” in each case. In addition, the “growth inhibition (GI)” value in [8] and in assay [26] was “Active” each time. The Activity entry in assay [12] is “Dose-dependent effect”; in assay [18], “tde”. The result in [13], in assay [17], in assay [22], in assay [25], in [27] and in assay [28] was inactive. For the same compound, the outcome in assay [30] was inactive.

In the case of `C[C@@H](O[Si](C)(C)C(C)(C)C)[C@H]1C(=O)N2/C(=N/C3CCCCC3)[Se]/C(=C/I)C[C@H]12`, the fold change (FC) was under 2 in assay [2], 6 in assay [1] and under 2 in [23]. The outcome in [3], in assay [4], in assay [6], in assay [7], in assay [9] and in assay [16] was Active. The result in assay [19], in assay [32], in assay [21], in assay [24], in [29] and in [31] was Active. In addition, the inhibition entry in assay [5], in assay [11], in [14], in assay [15] and in assay [20] was “Active” throughout. The “growth inhibition (GI)” value in [8] and in assay [26] was “Active” throughout. The Activity result in assay [12] is “Dose-dependent effect”; in [18], “tde”. Also, the result in assay [13], in assay [17], in assay [22], in assay [25], in [27] and in [28] was inactive. Also, the result in assay [30] was inactive.

For `C[C@@H](O[Si](C)(C)C(C)(C)C)[C@H]1C(=O)N2/C(=N/c3ccc4ccccc4c3)[Se]/C(=C/I)C[C@H]12`, the outcome in [1] was Active.
